Experimental findings from patent US5827872A, “Xenomins novel heterocyclic compounds with antimicrobial and antneoplastic properties” (priority 1996, dated 1998) are described below.

Common to all, as to type: cell-based
One test concerns Bacillus subtilis. Kind of test: MIC by standard dilution method (NCCLS 1990), Bacillus subtilis. As to conditions: 35° C., 24 h incubation. As for the experimental part: (§1) To determine minimum inhibitory concentration (MIC) of the xenomins, the standard dilution method was used as outlined by The National Committee for Clinical Laboratory Standards (1990) for testing antibiotics. The tests were coducted at 35° C. and the MICs were determined after 24 h incubation.

Test [1] concerns Staphylococcus aureus ATCC 29213. Kind of test: MIC by standard dilution method (NCCLS 1990), Staphylococcus aureus ATCC 29213. Conditions: ATCC29213, 35° C., 24 h incubation. As for the experimental part:
as §1

The subject of a further test is S. aureus 0012. As to the kind of experiment: MIC by standard dilution method (NCCLS 1990), S. aureus 0012 (methicillin-resistant clinical isolate). As to conditions: Staphylococcus aureus; S. aureus 0012, clinical isolate of methicillin-resistant strain; 35° C., 24 h incubation. How it is done:
as §1
(§2) *clinical isolates of methicillinresistant strain.

For another test, the system named is S. aureus 0017. Kind of test: MIC by standard dilution method (NCCLS 1990), S. aureus 0017 (methicillin-resistant clinical isolate). Conditions: Staphylococcus aureus; S. aureus 0017, clinical isolate of methicillin-resistant strain; 35° C., 24 h incubation. How it is done:
as §1, §2

The test system of test [2] is Candida tropicalis CBS 94. As to the kind of experiment: MIC by standard dilution method (NCCLS 1990), Candida tropicalis CBS 94. Conditions: CBS94, 35° C., 24 h incubation. How it is done: as §1
The subject of test [3] is Cryptococcus neoformans ATCC14117. Kind of test: MIC by standard dilution method (NCCLS 1990), Cryptococcus neoformans ATCC14117. Conditions: 35° C., 24 h incubation. As for the experimental part: as §1
A further test deals with human colon cancer HT-29. Kind of test: Antineoplastic activity in vitro, method of Skehan et al. (1990), HT-29. As to conditions: HT29 cells. As for the experimental part: (§3) The antineoplastic activities of xenomins have been determined in vitro in cell cultures of human colon cancer HT-29, breast cancer MCF-7 and cervical cancer Hela. The tests were carried out using the method described by Skehan et al. (1990).

For a further test, the system named is breast cancer MCF-7. As to the kind of experiment: Antineoplastic activity in vitro, method of Skehan et al. (1990), MCF-7. As to conditions: Homo sapiens, MCF7, MCF-7 cells. How it is done:
as §3

For another test, the system named is cervical cancer Hela. As to the kind of experiment: Antineoplastic activity in vitro, method of Skehan et al. (1990), Hela. As to conditions: Homo sapiens, Hela cells. How it is done:
as §3

Values after ≈ are worked out from the molar mass of the structure shown.

In the case of `CCCCCC(=O)Nc1c2[s+]([O-])scc-2n(C)c1=O` (single isomer, unassigned) [Xenomin 1], the MIC in the test with Bacillus subtilis amounted to 5 µg/mL (≈ 16.6 µM); in test [1] it was 20 µg/mL (≈ 66.6 µM); against S. aureus 0012 it was 10 µg/mL (≈ 33.3 µM); in the test on S. aureus 0017, 10 µg/mL (≈ 33.3 µM); in test [2] it was 100 µg/mL (≈ 333 µM); in [3], 13 µg/mL (≈ 43.3 µM). The IC50 in the test with human colon cancer HT-29 was 0.14 µg/mL (≈ 0.466 µM); in the test on breast cancer MCF-7, 1.37 µg/mL (≈ 4.56 µM); in the test on cervical cancer Hela it was 0.24 µg/mL (≈ 0.799 µM).
For `CC(C)CCCC(=O)Nc1c2[s+]([O-])scc-2n(C)c1=O` (single isomer, unassigned) [Xenomin 2], the MIC with Bacillus subtilis is 41 µg/mL (≈ 130 µM); in [1], 41 µg/mL (≈ 130 µM); against S. aureus 0012 it was 41 µg/mL (≈ 130 µM); against S. aureus 0017, 41 µg/mL (≈ 130 µM); in [2], greater than 100 µg/mL; in [3], 25 µg/mL (≈ 79.5 µM). For the same compound, the IC50 is 0.34 µg/mL (≈ 1.08 µM) in the test on human colon cancer HT-29, 1.74 µg/mL (≈ 5.53 µM) with breast cancer MCF-7 and 0.65 µg/mL (≈ 2.07 µM) in the test on cervical cancer Hela.
